From PMC6273168, “Synthesis and Biological Evaluation of Novel 4-Morpholino-7,8-dihydro-5H-thiopyrano[4,3-d]pyrimidine Derivatives Bearing Phenylpyridine/ Phenylpyrimidine-Carboxamides” (Molecules, 2016)

Experiments:
[1] = test system: A549 (human lung cancer) cell line; test: MTT cell proliferation (cytotoxicity) assay, A549; format: cell-based; settings: average of two separate determinations
Protocol: (§1) Taking GDC-0941 as reference compound, the target compounds […], 12a–j, 13a–g and 14a–g ere evaluated for the cytotoxicity against the three cancer cell lines A549, PC-3 and MCF-7 usg 3-(4,5-dimethylthiazolyl-2)-2,5-diphenyltetrazolium bromide (MTT) cell proliferation assays. In addition, one selected compounds 12h was fher evaluated for PI3Kα kinase inhibitory activity. The results, expressed as IC50 values or inhibitory rate, are sumrized in Table 1, Table 2 and Table 3.
(§2) The in vitro cytotoxic activities of all the compounds 11a–11j, 12a–12j, 13a–13g and 14a–14g was evaluated with A549, PC-3 and MCF-7 cell lines by the standard MTT assay, with GDC-0941 as positive control. The cancer cell lines were cultured in minimum essential medium (MEM) supplement with 10% fetal bovine serum (FBS). Approximately 4 × 10^3 cells, suspended in MEM medium, were plated onto each well of a 96-well plate and incubated in 5% CO2 at 37 °C for 24 h. The test compounds at indicated final concentrations were added to the culture medium and the cell cultures were continued for 72 h. Fresh MTT was added to each well at a terminal concentration of […] and incubated with cells at 37 °C for 4 h. The formazan crystals were dissolved in 100 µL DMSO each well, and the absorbency at 492 nm (for absorbance of MTT formazan) and 630 nm (for the reference wavelength) was measured with an ELISA reader. All of the compounds were tested three times in each of the cell lines. The results expressed as inhibition rates or IC50 (half-maximal inhibitory concentration) were the averages of two determinations and calculated by using the Bacus Laboratories Inc. Slide Scanner (Bliss) software (the Bacus Laboratories Inc. Slide Scanner (BLISS) system, Lombard, IL, USA).

[2] = test system: PC-3 (human prostatic cancer) cell line; test: MTT cell proliferation (cytotoxicity) assay, PC-3; format: cell-based; settings: 72 h, average of two separate determinations
Protocol: as §1, §2

[3] = test system: MCF-7 (human breast cancer) cell line; test: MTT cell proliferation (cytotoxicity) assay, MCF-7; format: cell-based; settings: average of two separate determinations
Protocol: as §1, §2

[4] = Homo sapiens, A549, 72 h, Table 2
[5] = Homo sapiens, MCF7, 72 h, Table 2
[6] = Homo sapiens, A549, 72 h, Table 1
[7] = Homo sapiens, MCF7, 72 h, Table 1

melting point | Compound | IC50 [1, 4] | IC50 ([2]; Homo sapiens, Table 2) | IC50 [3, 5] | also measured
> 300 °C | O=C(Nc1ccc(-c2nc3c(c(N4CCOCC4)n2)CS(=O)(=O)CC3)cc1)c1cc(-c2ccc(F)cc2)ncn1 [Compound 14d] | > 100 µM | > 100 µM | > 100 µM | –
290.2 to 293.1 °C | Cc1ccc(-c2ccnc(C(=O)Nc3ccc(-c4nc5c(c(N6CCOCC6)n4)CS(=O)(=O)CC5)cc3)c2)cc1 [Compound 12g, N-(4-(4-Morpholino-7,8-dihydro-6,6-dioxide-5H-thiopyrano[4,3-d]pyrimidin-2-yl)phenyl)-4-(4-methylphenyl) pyridinecarboxamide] | – | – | – | IC50 [1, 6]: 14.51 ± 0.1 µM; IC50 ([2]; Homo sapiens, Table 1): 64.71 ± 0.17 µM; IC50 [3, 7]: 28.9 ± 1.29 µM
> 300 °C | O=C(Nc1ccc(-c2nc3c(c(N4CCOCC4)n2)CS(=O)(=O)CC3)cc1)c1cc(-c2ccc(C(F)(F)F)cc2)ccn1 [Compound 12d, N-(4-(4-Morpholino-7,8-dihydro-6,6-dioxide-5H-thiopyrano[4,3-d]pyrimidin-2-yl)phenyl)-4-(4-trifluoro-methylphenyl) pyridinecarboxamide] | – | – | – | –
236.5 to 238.4 °C | O=C(Nc1ccc(-c2nc3c(c(N4CCOCC4)n2)CSCC3)cc1)c1cc(-c2cccc(F)c2)ccn1 [Compound 11b, N-(4-(4-Morpholino-7,8-dihydro-5H-thiopyrano[4,3-d]pyrimidin-2-yl)phenyl)-4-(3-fluorophenyl)pyridine amide] | – | – | – | IC50 [1, 6]: 48.08 ± 0.13 µM; IC50 ([2]; Homo sapiens, Table 1): 60.3 ± 1.24 µM; IC50 [3, 7]: 51.7 ± 1.56 µM
244.2 to 245.8 °C | O=C(Nc1ccc(-c2nc3c(c(N4CCOCC4)n2)CSCC3)cc1)c1cc(-c2ccc(C(F)(F)F)cc2)ncn1 [Compound 13c] | > 100 µM | > 100 µM | > 100 µM | –
289 to 292.1 °C | COc1ccc(-c2ccnc(C(=O)Nc3ccc(-c4nc5c(c(N6CCOCC6)n4)CS(=O)(=O)CC5)cc3)c2)cc1 [Compound 12i, N-(4-(4-Morpholino-7,8-dihydro-6,6-dioxide-5H-thiopyrano[4,3-d]pyrimidin-2-yl)phenyl)-4-(4-methoxy-phenyl) pyridinecarboxamide] | – | – | – | –
275 to 276.8 °C | Cc1ccc(-c2ccnc(C(=O)Nc3ccc(-c4nc5c(c(N6CCOCC6)n4)CSCC5)cc3)c2)cc1 [Compound 11g, N-(4-(4-Morpholino-7,8-dihydro-5H-thiopyrano[4,3-d]pyrimidin-2-yl)phenyl)-4-(4-methylphenyl) picolinamide] | – | – | – | –
210 to 212.7 °C | COc1ccc(-c2cc(C(=O)Nc3ccc(-c4nc5c(c(N6CCOCC6)n4)CSCC5)cc3)ncn2)cc1 [Compound 13b] | > 100 µM | > 100 µM | > 100 µM | –
229.8 to 232.1 °C | CCc1ccc(-c2ccnc(C(=O)Nc3ccc(-c4nc5c(c(N6CCOCC6)n4)CSCC5)cc3)c2)cc1 [Compound 11h, N-(4-(4-Morpholino-7,8-dihydro-5H-thiopyrano[4,3-d]pyrimidin-2-yl)phenyl)-4-(4-ethylphenyl) picolinamide] | – | – | – | –
> 300 °C | O=C(Nc1ccc(-c2nc3c(c(N4CCOCC4)n2)CS(=O)(=O)CC3)cc1)c1cc(-c2ccc(Cl)cc2)ncn1 [Compound 14f] | > 100 µM | > 100 µM | > 100 µM | –
294.2 to 296.6 °C | O=C(Nc1ccc(-c2nc3c(c(N4CCOCC4)n2)CS(=O)(=O)CC3)cc1)c1cc(-c2ccccc2)ncn1 [Compound 14g] | > 100 µM | > 100 µM | > 100 µM | –
281.5 to 283.8 °C | O=C(Nc1ccc(-c2nc3c(c(N4CCOCC4)n2)CS(=O)(=O)CC3)cc1)c1cc(-c2cccc(F)c2)ccn1 [Compound 12b, N-(4-(4-Morpholino-7,8-dihydro-6,6-dioxide-5H-thiopyrano[4,3-d]pyrimidin-2-yl)phenyl)-4-(3-fluoro-phenyl) pyridinecarboxamide] | – | – | – | –
> 300 °C | O=C(Nc1ccc(-c2nc3c(c(N4CCOCC4)n2)CS(=O)(=O)CC3)cc1)c1cc(-c2ccc(Br)cc2)ncn1 [Compound 14e] | > 100 µM | > 100 µM | 27.4 ± 1.27 µM | –
235.3 to 236.2 °C | O=C(Nc1ccc(-c2nc3c(c(N4CCOCC4)n2)CSCC3)cc1)c1cc(-c2ccc(Cl)cc2)ccn1 [Compound 11e, N-(4-(4-Morpholino-7,8-dihydro-5H-thiopyrano[4,3-d]pyrimidin-2-yl)phenyl)-4-(4-chlorophenyl)pyridine amide] | – | – | – | IC50 [1, 6]: 19.3 ± 0.86 µM; IC50 ([2]; Homo sapiens, Table 1): 23.2 ± 0.76 µM; IC50 [3, 7]: 20.9 ± 1.02 µM
– | N-(4-(4-Morpholino-7,8-dihydro-5H-thiopyrano[4,3-d]pyrimidin-2-yl)phenyl)-6-phenylpyridine-4-carboxamide [Compound 13g] | – | – | – | IC50 ([1]; 72 h, Table 2): > 100 µM; IC50 ([2]; Table 2): > 100 µM; IC50 ([3]; 72 h, Table 2): > 100 µM
277 to 279.5 °C | COc1ccc(-c2cc(C(=O)Nc3ccc(-c4nc5c(c(N6CCOCC6)n4)CS(=O)(=O)CC5)cc3)ncn2)cc1 [Compound 14b] | > 100 µM | > 100 µM | 89.6 ± 0.91 µM | –
266.8 to 268.8 °C | O=C(Nc1ccc(-c2nc3c(c(N4CCOCC4)n2)CS(=O)(=O)CC3)cc1)c1cc(-c2ccc(Cl)cc2)ccn1 [Compound 12e, N-(4-(4-Morpholino-7,8-dihydro-6,6-dioxide-5H-thiopyrano[4,3-d]pyrimidin-2-yl)phenyl)-4-(4-chloro-phenyl) pyridinecarboxamide] | – | – | – | –
248.1 to 249.6 °C | O=C(Nc1ccc(-c2nc3c(c(N4CCOCC4)n2)CSCC3)cc1)c1cc(-c2ccc(F)cc2)ccn1 [Compound 11f, N-(4-(4-Morpholino-7,8-dihydro-5H-thiopyrano[4,3-d]pyrimidin-2-yl)phenyl)-4-(4-fluorophenyl)pyridine amide] | – | – | – | –
237 to 239.3 °C | O=C(Nc1ccc(-c2nc3c(c(N4CCOCC4)n2)CSCC3)cc1)c1cc(-c2ccc(F)cc2)ncn1 [Compound 13d] | > 100 µM | > 100 µM | > 100 µM | –
281.8 to 285 °C | O=C(Nc1ccc(-c2nc3c(c(N4CCOCC4)n2)CSCC3)cc1)c1cc(-c2ccc(Cl)cc2)ncn1 [Compound 13f] | > 100 µM | > 100 µM | > 100 µM | –
– | N-(4-(4-Morpholino-7,8-dihydro-5H-thiopyrano[4,3-d]pyrimidin-2-yl)phenyl)-6-(p-tolyl)pyrimidine-4-formamide [Compound 13a] | – | – | – | IC50 ([1]; 72 h, Table 2): > 100 µM; IC50 ([2]; Table 2): > 100 µM; IC50 ([3]; 72 h, Table 2): > 100 µM
229.3 to 231.7 °C | O=C(Nc1ccc(-c2nc3c(c(N4CCOCC4)n2)CSCC3)cc1)c1cc(-c2ccc(C(F)(F)F)cc2)ccn1 [Compound 11d, N-(4-(4-Morpholino-7,8-dihydro-5H-thiopyrano[4,3-d]pyrimidin-2-yl)phenyl)-4-(4-trifluoromethylphenyl) picolinamide] | – | – | – | IC50 [1, 6]: 43.46 ± 0.12 µM; IC50 [3, 7]: 50.3 ± 2.18 µM
– | CS(=O)(=O)N1CCN(Cc2cc3nc(-c4cccc5[nH]ncc45)nc(N4CCOCC4)c3s2)CC1 [GDC-0941, reference compound] | – | – | – | IC50 [1, 6]: 6.99 ± 0.21 µM; IC50 ([2]; Homo sapiens, Table 1): 0.2 ± 0.08 µM; IC50 [3, 7]: 0.07 ± 0.03 µM
235 to 236.7 °C | O=C(Nc1ccc(-c2nc3c(c(N4CCOCC4)n2)CSCC3)cc1)c1cc(-c2ccc(F)cc2F)ccn1 [Compound 11c, N-(4-(4-Morpholino-7,8-dihydro-5H-thiopyrano[4,3-d]pyrimidin-2-yl)phenyl)-4-(2,4-difluorophenyl) picolinamide] | – | – | – | –
269 to 272.6 °C | O=C(Nc1ccc(-c2nc3c(c(N4CCOCC4)n2)CS(=O)(=O)CC3)cc1)c1cc(-c2ccc(F)cc2F)ccn1 [Compound 12c, N-(4-(4-Morpholino-7,8-dihydro-6,6-dioxide-5H-thiopyrano[4,3-d]pyrimidin-2-yl)phenyl)-4-(2,4-difluorophenyl) picolinamide] | – | – | – | –
229 to 233.8 °C | O=C(Nc1ccc(-c2nc3c(c(N4CCOCC4)n2)CS(=O)(=O)CC3)cc1)c1cc(-c2ccccc2)ccn1 [Compound 12a, N-(4-(4-Morpholino-7,8-dihydro-6,6-dioxide-5H-thiopyrano[4,3-d]pyrimidin-2-yl)phenyl)-4-phenylpyridine Amide] | – | – | – | IC50 ([2]; Homo sapiens, Table 1): 74.27 ± 0.08 µM
> 300 °C | O=C(Nc1ccc(-c2nc3c(c(N4CCOCC4)n2)CS(=O)(=O)CC3)cc1)c1cc(-c2ccc(F)cc2)ccn1 [Compound 12f, N-(4-(4-Morpholino-7,8-dihydro-6,6-dioxide-5H-thiopyrano[4,3-d]pyrimidin-2-yl)phenyl)-4-(4-fluoro-phenyl) pyridincarboxamide] | – | – | – | –
